Patent US5449820A, “Method of preparing high purity 2,6-naphthalene dicarboxylic acid” (Mitsubishi Chemical Corporation, priority 1994, dated 1995)

Test: solubility of 2,6-naphthalene dicarboxylic acid with respect to high temperature and high pressure water
Format: physicochemical
Conditions: for solubility in water containing 5 wt % of isopropanol: water containing 5 wt % of isopropanol (entrainer)
Method: Although the quantity of water for use in the dissolving process differs depending upon the dissolving temperature, the quantity of water must be larger than a quantity (the saturated solubility) in which coarse 2,6-naphthalene dicarboxylic acid can be completely dissolved. In an example case where water containing 5 wt % of isopropanol is used and the dissolving temperature is 300° C., five parts or more by weight of water with respect to one part by weight of coarse 2,6-naphthalene dicarboxylic acid is required. An example of the results of measurements of the solubility of 2,6-naphthalene dicarboxylic acid with respect to high temperature and high pressure water is shown in Table 1.

Solubility in water (225 °C, 27 atm): 0.36 wt % | Solubility in water (250 °C, 40 atm): 1.13 wt % | solubility in water containing 5 wt % of isopropanol (250 °C): 4.2 wt % | Solubility in water (275 °C, 60 atm): 3.28 wt % | Solubility in water (300 °C, 86 atm): 8.34 wt % | solubility in water containing 5 wt % of isopropanol (300 °C): 18.0 wt % | Solubility in water (325 °C, 121 atm): 18.6 wt % | Solubility in water (375 °C, 230 atm): 34.2 wt % | Solubility in water (386 °C, 230 atm): 36.7 wt % | solubility with respect to water (dissolved) (about 370 °C, critical temperature for water): ≥ 30 wt %
SMILES: O=C(O)c1ccc2cc(C(=O)O)ccc2c1 [2,6-naphthalene dicarboxylic acid]
